From ChEMBL document CHEMBL4842357, “Discovery of Novel Apigenin-Piperazine Hybrids as Potent and Selective Poly (ADP-Ribose) Polymerase-1 (PARP-1) Inhibitors for the Treatment of Cancer” (J Med Chem, 2021)

Key:
[1] = target: T1, Poly [ADP-ribose] polymerase 2 (Homo sapiens, UniProt Q9UGN5); assay: Inhibition of recombinant human full-length PARP-2 using biotinylated substrate
[2] = target: Poly [ADP-ribose] polymerase 1 (Homo sapiens, UniProt P09874); assay: Inhibition of recombinant human full-length PARP-1 using biotinylated substrate
Sequence of Poly [ADP-ribose] polymerase 1 (P09874 whole entry): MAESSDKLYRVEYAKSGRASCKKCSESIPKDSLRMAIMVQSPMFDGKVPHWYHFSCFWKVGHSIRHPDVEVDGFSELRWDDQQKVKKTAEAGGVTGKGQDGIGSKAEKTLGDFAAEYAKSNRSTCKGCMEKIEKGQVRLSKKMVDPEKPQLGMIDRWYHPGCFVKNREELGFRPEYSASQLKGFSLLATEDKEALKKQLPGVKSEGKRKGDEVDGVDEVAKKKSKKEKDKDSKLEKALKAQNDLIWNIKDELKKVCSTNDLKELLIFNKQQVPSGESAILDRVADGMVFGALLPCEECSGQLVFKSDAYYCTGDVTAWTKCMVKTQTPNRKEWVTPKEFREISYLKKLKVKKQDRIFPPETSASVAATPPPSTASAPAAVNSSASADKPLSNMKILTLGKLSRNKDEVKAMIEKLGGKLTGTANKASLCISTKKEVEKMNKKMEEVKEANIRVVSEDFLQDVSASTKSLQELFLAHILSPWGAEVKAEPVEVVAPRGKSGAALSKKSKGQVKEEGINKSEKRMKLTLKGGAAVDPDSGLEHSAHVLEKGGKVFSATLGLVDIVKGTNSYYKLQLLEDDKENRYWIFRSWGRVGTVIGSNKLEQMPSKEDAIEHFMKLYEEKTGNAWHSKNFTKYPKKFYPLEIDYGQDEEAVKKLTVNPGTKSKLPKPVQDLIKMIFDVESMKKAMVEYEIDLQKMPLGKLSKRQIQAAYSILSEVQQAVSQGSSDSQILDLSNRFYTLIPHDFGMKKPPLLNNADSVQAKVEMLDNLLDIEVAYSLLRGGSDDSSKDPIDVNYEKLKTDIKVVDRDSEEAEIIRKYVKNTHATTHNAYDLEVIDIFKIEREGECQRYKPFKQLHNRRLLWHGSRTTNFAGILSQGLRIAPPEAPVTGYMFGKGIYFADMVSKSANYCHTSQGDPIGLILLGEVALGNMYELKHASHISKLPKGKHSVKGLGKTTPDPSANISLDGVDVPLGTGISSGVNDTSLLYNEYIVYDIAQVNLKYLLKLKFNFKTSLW

[3] = species on record: Homo sapiens; assay: Selectivity index, ratio of IC50 for inhibition of recombinant human full-length PARP-2 to IC50 for inhibition of recombinant human full-length PARP-1
[4] = target: T1, Poly [ADP-ribose] polymerase 2; assay: Inhibition of PARP-2 (unknown origin)
[5] = species on record: Homo sapiens; assay: Selectivity index, ratio of IC50 for PARP-2 (unknown origin) to IC50 for PARP-1 (unknown origin)

T1 sequence (Q9UGN5 whole entry): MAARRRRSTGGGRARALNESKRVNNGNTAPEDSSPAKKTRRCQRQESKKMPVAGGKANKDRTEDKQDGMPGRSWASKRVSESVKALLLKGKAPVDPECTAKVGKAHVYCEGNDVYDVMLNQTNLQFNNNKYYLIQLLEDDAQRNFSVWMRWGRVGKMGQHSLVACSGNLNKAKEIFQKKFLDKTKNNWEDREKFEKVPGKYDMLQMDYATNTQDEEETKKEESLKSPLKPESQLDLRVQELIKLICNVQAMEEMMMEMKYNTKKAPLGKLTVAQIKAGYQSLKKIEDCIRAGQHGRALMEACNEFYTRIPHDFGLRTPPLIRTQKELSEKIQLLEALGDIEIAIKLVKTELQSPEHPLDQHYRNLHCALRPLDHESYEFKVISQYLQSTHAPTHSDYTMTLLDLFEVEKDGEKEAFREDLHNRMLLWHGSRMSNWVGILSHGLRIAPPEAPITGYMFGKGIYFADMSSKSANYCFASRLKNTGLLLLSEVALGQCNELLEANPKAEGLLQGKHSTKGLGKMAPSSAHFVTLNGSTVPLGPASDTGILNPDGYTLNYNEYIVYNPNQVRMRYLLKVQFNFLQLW

| SMILES | IC50 [1] | IC50 [2] | Ratio IC50 [3] | IC50 [4] | Ratio IC50 [5] |
| --- | --- | --- | --- | --- | --- |
| O=C(C1CC1)N1CCN(Cc2c(O)cc(O)c3c(=O)cc(-c4ccc(O)cc4)oc23)CC1 | 2.5 µM | 0.0375 µM | 66.7 |  |  |
| O=c1cc(-c2ccc(O)cc2)oc2c(CN3CCN(CC4CCCCC4)CC3)c(O)cc(O)c12 | 3.2 µM | 0.0583 µM | 54.9 |  |  |
| O=c1cc(-c2ccc(O)cc2)oc2c(CN3CCN(c4cncnc4)CC3)c(O)cc(O)c12 | 1.8 µM | 0.0295 µM | 61 |  |  |
| COc1cc(/C=N/NC(N)=S)c(Br)c(Br)c1OC |  |  |  | > 1 µM | > 33.9 |
| O=C(c1cccnc1)N1CCN(Cc2c(O)cc(O)c3c(=O)cc(-c4ccc(O)cc4)oc23)CC1 | 1.5 µM | 0.0262 µM | 57.2 |  |  |
| O=C(c1cccc(C(F)(F)F)c1)N1CCN(Cc2c(O)cc(O)c3c(=O)cc(-c4ccc(O)cc4)oc23)CC1 | 2.9 µM | 0.0419 µM | 69.2 |  |  |
| O=C(c1ccncc1)N1CCN(Cc2c(O)cc(O)c3c(=O)cc(-c4ccc(O)cc4)oc23)CC1 | 1.4 µM | 0.0276 µM | 50.7 |  |  |
| O=c1cc(-c2ccc(O)cc2)oc2c(CN3CCN(c4ccc(C(F)(F)F)cc4)CC3)c(O)cc(O)c12 | 2.8 µM | 0.0498 µM | 56.2 |  |  |
| O=c1cc(-c2ccc(O)cc2)oc2c(CN3CCN(c4ccc(Cl)cc4)CC3)c(O)cc(O)c12 | 3.7 µM | 0.0608 µM | 60.8 |  |  |
| Cn1cccc1/C=C1\C(=O)NC(=O)c2ccccc21 |  |  |  | 40 µM | 88.9 |
| O=c1cc(-c2ccc(O)cc2)oc2c(CN3CCN(Cc4ccc(C(F)(F)F)cc4)CC3)c(O)cc(O)c12 | 1.9 µM | 0.0298 µM | 63.7 |  |  |
| O=C(c1cccc(F)c1F)C1CCN(Cc2c(O)cc(O)c3c(=O)cc(-c4ccc(O)cc4)oc23)CC1 | 4.5 µM | 0.0792 µM | 56.8 |  |  |
| O=c1cc(-c2ccc(O)cc2)oc2c(CN3CC=C(c4ccccc4)CC3)c(O)cc(O)c12 | 7.9 µM | 0.139 µM | 56.6 |  |  |
| O=C(c1ccccn1)N1CCN(Cc2c(O)cc(O)c3c(=O)cc(-c4ccc(O)cc4)oc23)CC1 | 1.3 µM | 0.0218 µM | 59.6 |  |  |
| Cc1ccc(N2CCN(Cc3c(O)cc(O)c4c(=O)cc(-c5ccc(O)cc5)oc34)CC2)cc1 | 2.8 µM | 0.0485 µM | 57.7 |  |  |
| O=c1cc(-c2ccc(O)cc2)oc2c(CN3CCN(c4ccc(F)cc4)CC3)c(O)cc(O)c12 | 2.9 µM | 0.0514 µM | 56.4 |  |  |
| COc1ccc(CN2CCN(Cc3c(O)cc(O)c4c(=O)cc(-c5ccc(O)cc5)oc34)CC2)c(OC)c1OC | 1.2 µM | 0.0216 µM | 55.5 |  |  |
| Cc1cc(C)cc(COC(=O)N2CCN(Cc3c(O)cc(O)c4c(=O)cc(-c5ccc(O)cc5)oc34)CC2)c1 | 2 µM | 0.0346 µM | 57.8 |  |  |
| COC(=O)C1CCN(Cc2c(O)cc(O)c3c(=O)cc(-c4ccc(O)cc4)oc23)CC1 | 6.7 µM | 0.0976 µM | 68.6 |  |  |
| O=c1cc(-c2ccc(O)cc2)oc2c(CN3CCN(Cc4ccncc4)CC3)c(O)cc(O)c12 | 1.1 µM | 0.0198 µM | 55.5 |  |  |
| O=c1cc(-c2ccc(O)cc2)oc2c(CN3CCN(CC4CC4)CC3)c(O)cc(O)c12 | 2.9 µM | 0.0546 µM | 53.1 |  |  |
| O=c1cc(-c2ccc(O)cc2)oc2c(CN3CCN(c4ccc(O)cc4)CC3)c(O)cc(O)c12 | 2.9 µM | 0.0397 µM | 73 |  |  |
| O=C(OCc1ccccc1)N1CCN(Cc2c(O)cc(O)c3c(=O)cc(-c4ccc(O)cc4)oc23)CC1 | 2.1 µM | 0.0438 µM | 47.9 |  |  |
| O=C(C1CCCCC1)N1CCN(Cc2c(O)cc(O)c3c(=O)cc(-c4ccc(O)cc4)oc23)CC1 | 2.3 µM | 0.0445 µM | 51.7 |  |  |
| O=c1cc(-c2ccc(O)cc2)oc2c(CN3CCN(Cc4ccsc4)CC3)c(O)cc(O)c12 | 2.8 µM | 0.0498 µM | 56.2 |  |  |
| O=c1cc(-c2cccc(-c3c(O)cc(O)c4c(=O)cc(-c5ccc(C(F)(F)F)cc5)oc34)c2)oc2cc(O)cc(O)c12 | 26.4 µM | 0.502 µM | 52.6 |  |  |

| SMILES | IC50 [1] | IC50 [2] | Ratio IC50 [3] | IC50 [4] | Ratio IC50 [5] |
| --- | --- | --- | --- | --- | --- |
| O=c1cc(-c2ccc(O)cc2)oc2c(CN3CCN(c4ccccc4O)CC3)c(O)cc(O)c12 | 2 µM | 0.037 µM | 54 |  |  |
| CC(C)C(=O)N1CCN(Cc2c(O)cc(O)c3c(=O)cc(-c4ccc(O)cc4)oc23)CC1 | 2.1 µM | 0.0379 µM | 55.4 |  |  |
| O=C(c1ccc(Cl)cc1)N1CCN(Cc2c(O)cc(O)c3c(=O)cc(-c4ccc(O)cc4)oc23)CC1 | 3 µM | 0.0562 µM | 53.4 |  |  |
| CC(=O)N1CCN(Cc2c(O)cc(O)c3c(=O)cc(-c4ccc(O)cc4)oc23)CC1 | 3 µM | 0.0426 µM | 70.4 |  |  |
| O=c1cc(-c2ccc(O)cc2)oc2c(CN3CCN(c4ccccc4)CC3)c(O)cc(O)c12 | 2.1 µM | 0.0356 µM | 59 |  |  |
| O=c1cc(-c2ccc(O)cc2)oc2c(CN3CCC(CO)CC3)c(O)cc(O)c12 | 4.8 µM | 0.0802 µM | 59.8 |  |  |
| O=c1cc(-c2ccc(O)cc2)oc2c(CN3CCN(CC4CCCO4)CC3)c(O)cc(O)c12 (centres undefined) | 2.5 µM | 0.0404 µM | 61.9 |  |  |
| O=c1cc(-c2ccc(O)cc2)oc2c(CN3CCN(Cc4ccc(Cl)cc4)CC3)c(O)cc(O)c12 | 1.8 µM | 0.0316 µM | 57 |  |  |
| O=c1cc(-c2cccc(-c3c(O)cc(O)c4c(=O)cc(-c5ccc(O)cc5)oc34)c2)oc2cc(O)cc(O)c12 | 10.3 µM | 0.196 µM | 52.5 |  |  |
| CC(C)CCN1CCN(Cc2c(O)cc(O)c3c(=O)cc(-c4ccc(O)cc4)oc23)CC1 | 3.7 µM | 0.0706 µM | 52.4 |  |  |
| Cc1ccc(-c2cc(=O)c3c(O)cc(O)c(-c4cccc(-c5cc(=O)c6c(O)cc(O)cc6o5)c4)c3o2)cc1C | 12.7 µM | 0.25 µM | 50.9 |  |  |
| O=c1cc(-c2cccc(-c3c(O)cc(O)c4c(=O)cc(-c5cccs5)oc34)c2)oc2cc(O)cc(O)c12 | 11.1 µM | 0.202 µM | 55 |  |  |
| O=c1cc(-c2cccc(-c3c(O)cc(O)c4c(=O)cc(-c5ccco5)oc34)c2)oc2cc(O)cc(O)c12 | 14.7 µM | 0.387 µM | 38 |  |  |
| O=C(c1ccccc1)N1CCN(Cc2c(O)cc(O)c3c(=O)cc(-c4ccc(O)cc4)oc23)CC1 | 2.9 µM | 0.0507 µM | 57.2 |  |  |
| O=c1cc(-c2cccc(-c3c(O)cc(O)c4c(=O)cc(-c5ccc(O)c(O)c5)oc34)c2)oc2cc(O)cc(O)c12 | 29.5 µM | 0.642 µM | 45.9 |  |  |
| Cc1ccc(CN2CCN(Cc3c(O)cc(O)c4c(=O)cc(-c5ccc(O)cc5)oc34)CC2)cc1 | 1.8 µM | 0.0306 µM | 58.8 |  |  |
| COc1ccc(C(=O)N2CCN(Cc3c(O)cc(O)c4c(=O)cc(-c5ccc(O)cc5)oc34)CC2)cc1 | 2.5 µM | 0.0434 µM | 57.6 |  |  |
| O=c1cc(-c2ccc(O)cc2)oc2c(CN3CCN(Cc4ccoc4)CC3)c(O)cc(O)c12 | 2.6 µM | 0.0438 µM | 59.4 |  |  |
| O=c1cc(-c2ccc(O)cc2)oc2c(CN3CCN(Cc4ccc(F)cc4)CC3)c(O)cc(O)c12 | 2 µM | 0.0345 µM | 58 |  |  |
| O=c1cc(-c2ccc(O)cc2)oc2c(CN3CCC(c4ccccc4)CC3)c(O)cc(O)c12 | 4 µM | 0.0719 µM | 55.6 |  |  |
| COc1ccc(CN2CCN(Cc3c(O)cc(O)c4c(=O)cc(-c5ccc(O)cc5)oc34)CC2)cc1 | 2 µM | 0.0354 µM | 56.5 |  |  |
| COc1cc(CN2CCN(Cc3c(O)cc(O)c4c(=O)cc(-c5ccc(O)cc5)oc34)CC2)cc(OC)c1 | 1.7 µM | 0.0272 µM | 62.5 |  |  |
| O=c1cc(-c2cccc(-c3c(O)cc(O)c4c(=O)cc(-c5ccc(F)cc5)oc34)c2)oc2cc(O)cc(O)c12 | 8.5 µM | 0.179 µM | 47.4 |  |  |
| Cc1ccc(-c2cc(=O)c3c(O)cc(O)c(-c4cccc(-c5cc(=O)c6c(O)cc(O)cc6o5)c4)c3o2)cc1 | 12.5 µM | 0.296 µM | 42.2 |  |  |
| O=C(C1CCC1)N1CCN(Cc2c(O)cc(O)c3c(=O)cc(-c4ccc(O)cc4)oc23)CC1 | 2.6 µM | 0.0455 µM | 57.1 |  |  |
| CCOC(=O)C1CCN(Cc2c(O)cc(O)c3c(=O)cc(-c4ccc(O)cc4)oc23)CC1 | 5.6 µM | 0.0928 µM | 60.3 |  |  |
